In US8633245B2, “PAI-1 inhibitor” (Institute of Medicinal Molecular Design, Inc., priority 2008, dated 2014):

Legend:
Format in all cases: biochemical
recombinant human PAI-1 [1] = molecular target: T1, recombinant human PAI-1 (Homo sapiens, UniProt P05121); test: Test Example 2: human PAI-1 inhibitory activity (tPA fluorogenic substrate, pH 7.4 HEPES buffer); conditions: human PAI-1; calculated from the inhibition rates
T1 construct: purchased Molecular Innovations, Inc
Procedure: 0.1 M HEPES, 0.1 M NaCl. 1 mM EDTA. 0.1% Polyethylene glycol 8,000 (Hampton Research Corporation),
2 mM Dimethyldecylphoshine oxide [Apo-10] (Fluka Corporation)

recombinant rat PAI-1 = molecular target: T2, recombinant rat PAI-1 (Rattus norvegicus, UniProt P20961); test: Test Example 3: rat PAI-1 inhibitory activity (as Test Example 2 with rat PAI-1); conditions: for IC50: rat PAI-1, calculated from the inhibition rates
T2 construct: purchased Molecular Innovations, Inc
T2 sequence (P20961 24-402): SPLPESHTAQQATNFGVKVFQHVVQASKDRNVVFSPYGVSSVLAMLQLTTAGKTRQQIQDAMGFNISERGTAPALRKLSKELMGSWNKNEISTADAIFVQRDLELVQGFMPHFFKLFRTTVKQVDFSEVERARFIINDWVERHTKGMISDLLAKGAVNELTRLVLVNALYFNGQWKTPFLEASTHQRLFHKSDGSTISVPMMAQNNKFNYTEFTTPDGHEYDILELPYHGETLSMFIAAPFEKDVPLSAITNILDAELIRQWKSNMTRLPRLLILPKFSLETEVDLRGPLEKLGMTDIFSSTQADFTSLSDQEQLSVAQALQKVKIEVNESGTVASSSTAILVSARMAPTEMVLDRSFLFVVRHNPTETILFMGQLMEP
Procedure: To this solution, 6 μl of 80 nM recombinant human PAI-1 (Molecular Innovations, Inc.) solution prepared with Tris buffer was added, and the plate was incubated for 5 minutes at room temperature. Furthermore, 30 μl of 800 IU/ml two-chain tPA (Activity Standard; American diagnostica, inc.) prepared with Tris buffer was added, and the mixed solution was incubated for 15 minutes at room temperature. Then, 30 μl of 400 μM fluorogenic substrate (Pyr-Gly-Arg-MCA; Peptide Institute, Inc.) for tPA prepared with Tris buffer was added and reacted for 30 minutes at room temperature.

recombinant human PAI-1 [2] = molecular target: T1, recombinant human PAI-1; test: Test Example 1: human PAI-1 inhibitory activity (tPA fluorogenic substrate, pH 7.5 Tris buffer); conditions: Tris buffer
Procedure: 50 mM Tris, 150 mM NaCl, 10 μg/ml BSA, 0.01% Tween80 (SIGMA-ALDRICH Corporation)

T1 sequence (P05121 24-402): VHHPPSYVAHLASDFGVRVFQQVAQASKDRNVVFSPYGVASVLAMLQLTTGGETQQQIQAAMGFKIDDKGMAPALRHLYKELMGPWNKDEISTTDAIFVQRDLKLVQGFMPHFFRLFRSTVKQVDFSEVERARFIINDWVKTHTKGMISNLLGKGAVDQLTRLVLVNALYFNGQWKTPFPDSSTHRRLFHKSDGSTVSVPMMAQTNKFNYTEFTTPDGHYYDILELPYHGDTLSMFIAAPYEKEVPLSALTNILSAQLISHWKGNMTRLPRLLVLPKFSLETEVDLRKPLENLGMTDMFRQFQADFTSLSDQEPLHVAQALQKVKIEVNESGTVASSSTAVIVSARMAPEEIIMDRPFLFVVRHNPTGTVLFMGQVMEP

SMILES	Inhibition Rate of PAI-1 Activity (%) (recombinant human PAI-1 [2]; Compound Concentration 5 μM)	Inhibition Rate of PAI-1 Activity (%) (recombinant human PAI-1 [2]; Compound Concentration 10 μM)	Inhibition Rate of PAI-1 Activity (%) (recombinant human PAI-1 [2]; Compound Concentration 25 μM)	also measured
CCCCCOc1ccc(-c2ccc(OC(F)(F)F)cc2)cc1N(CCCCc1ccccc1)C(=O)C(=O)O [Compound 226]				IC50 (recombinant human PAI-1 [1]): 0.51 µM; IC50 (recombinant rat PAI-1): 1 µM; inhibition at 10 µM (recombinant rat PAI-1; read-out: Inhibition Rate of PAI-1 Activity (%)): > 99%
CC(C)(C)c1ccc(COc2cccc(Oc3ccc(OC(F)(F)F)cc3)c2CCC(=O)O)cc1 [Compound 86]				IC50 (recombinant human PAI-1 [1]): 1.54 µM; IC50 (recombinant rat PAI-1): 5.21 µM
CC(C)(C)c1ccc(Oc2cc(-c3ccc(OC(F)(F)F)cc3)ccc2CCC(=O)O)cc1 [Compound 80]				IC50 (recombinant human PAI-1 [1]): 1.06 µM; IC50 (recombinant rat PAI-1): 2.2 µM
CC(C)(C)c1ccc(Oc2cccc(-c3ccc(OC(F)(F)F)cc3)c2OCC(=O)O)cc1 [Compound 113]				IC50 (recombinant human PAI-1 [1]): 1.75 µM; IC50 (recombinant rat PAI-1): 3.68 µM
O=C(O)C(=O)N(Cc1ccc(F)cc1)c1ccc(-c2ccc(OC(F)(F)F)cc2)cc1 [Compound 155]	7	15	38	
CC(C)(C)c1ccc(COc2ccc(-c3ccccc3)cc2/C=C/C(=O)O)cc1 [Compound 31]	21	49	89	
CC(C)(C)c1ccc(Oc2ccc(-c3ccc(OC(F)(F)F)cc3)cc2C=CC(=O)O)cc1 [Compound 12]	92	94		
CC(C)(C)c1ccc(-c2ccc(OCc3ccccc3)c(CCC(=O)O)c2)cc1 [Compound 48]	20	50	93	
CC(C)(C)c1ccc(Oc2cc(-c3ccc(OC(F)(F)F)cc3)ccc2/C=C/C(=O)O)cc1 [Compound 79]	39	84	90	
CC(C)(C)c1ccc(Oc2cc(-c3ccc(OC(F)(F)F)cc3)ccc2OCC(=O)O)cc1 [Compound 112]				IC50 (recombinant human PAI-1 [1]): 0.79 µM; IC50 (recombinant rat PAI-1): 1.98 µM
CC(C)(C)c1ccc(-c2ccc(OCc3ccccc3)c(/C=C/C(=O)O)c2)cc1 [Compound 47]	22	47	91	
CC(C)(OCc1ccc(-c2ccc(OC(F)(F)F)cc2)cc1Oc1ccc(C(C)(C)C)cc1)C(=O)O [Compound 111]	55	88	94	
CC(C)(C)c1ccc(COc2ccc(-c3cccc(OC(F)(F)F)c3)cc2/C=C/C(=O)O)cc1 [Compound 63]	38	72	93	
Cc1ccc(-c2ccccc2)cc1N(Cc1ccc(C(C)(C)C)cc1)C(=O)C(=O)O [Compound 137]		5	61	

The next lines start with results.

Inhibition Rate of PAI-1 Activity (%) (recombinant human PAI-1 [2]; Compound Concentration 5 μM)	Inhibition Rate of PAI-1 Activity (%) (recombinant human PAI-1 [2]; Compound Concentration 10 μM)	Inhibition Rate of PAI-1 Activity (%) (recombinant human PAI-1 [2]; Compound Concentration 25 μM)	SMILES	also measured
61			CC(C)(C)c1ccc(COc2cc(-c3ccc(OC(F)(F)F)cc3)cc(O)c2OCC(=O)O)cc1 [Compound 546]	Inhibition Rate of PAI-1 Activity (%) (recombinant human PAI-1 [2]; Compound Concentration 0.5 μM): 4%; Inhibition Rate of PAI-1 Activity (%) (recombinant human PAI-1 [2]; Compound Concentration 1 μM): 14%
44	72	88	CC(C)(C)c1ccc(CN(C(=O)C(=O)O)c2ccc(OCc3ccc(OC(F)(F)F)cc3)c(OCc3ccc(OC(F)(F)F)cc3)c2)cc1 [Compound 622]	
39	70	94	CCCOc1ccc(N(Cc2ccccc2)C(=O)C(=O)O)cc1-c1ccc(OC(F)(F)F)cc1 [Compound 210]	
44	79	98	CN(c1ccc(OC(F)(F)F)cc1)c1ccc(OCc2ccc(C(C)(C)C)cc2)c(CCC(=O)O)c1 [Compound 417]	
58	85	>99	CC(C)(C)c1ccc(-c2ccc(N(Cc3ccc(Cl)cc3)C(=O)C(=O)O)cc2)cc1 [Compound 204]	
38	69	>99	CC(C)(C)c1ccc(CN(C(=O)CCC(=O)O)c2ccc(-c3ccc(OC(F)(F)F)cc3)cc2)cc1 [Compound 609]	
93	99		O=C(O)C(=O)N(CCCCc1ccccc1)c1ccc(N2CCCCC2)c(-c2ccc(OC(F)(F)F)cc2)c1 [Compound 247]	
